In patent US12023333B2, “Phenyl-sulfamoyl.benzoyc acids as ERAP1 modulators” (GREY WOLF THERAPEUTICS LIMITED, priority 2019, dated 2024):

Target: T1, Purified ERAP1(37-941)-10His (ERAP1) (Homo sapiens, UniProt Q9NZ08)
T1 construct: Purified ERAP1(37-941)-10His (ERAP1); 10His (C)
Experiment: ERAP1 mediated hydrolysis of an amide substrate measured in a biochemical system (10-mer decapeptide substrate)
Details: 10-mer substrate, 23° C. for 1 h, excitation 279 nm and emission 355 nm; read-out: IC50 vs Decapeptide WRVYEKC(Dnp)ALK-acid (where Dnp is Dinitrophenyl maleimide) (10-mer)
Experimental: Biological Assay 1: ERAP1 Mediated Hydrolysis of an Amide Substrate Measured in a Biochemical System
1× Assay buffer (AB): 25 mM Bis-tris propane, 0.05% w/v Hydroxypropylmethylcellulose pH 7.75 made with Optima grade water
Decapeptide WRVYEKC(Dnp)ALK-acid (where Dnp is Dinitrophenyl maleimide) (10-mer) L-Leucine 7-amido-4-methylcoumarin (L-AMC)
12.5 μL ERAP1 enzyme in 1×AB was combined with 250 nL test compound in DMSO. 12.5 μL of either 240 μM L-AMC in 1×AB or 100 μM 10-mer in 1×AB was added to the reaction and incubated at 23° C. for 1 h. For detection, plates were read at excitation 365 nm and emission 442 nm (L-AMC) or excitation 279 nm and emission 355 nm (10-mer). Compound IC50 was determined using a 4 parameter equation.

T1 sequence (Q9NZ08 37-941): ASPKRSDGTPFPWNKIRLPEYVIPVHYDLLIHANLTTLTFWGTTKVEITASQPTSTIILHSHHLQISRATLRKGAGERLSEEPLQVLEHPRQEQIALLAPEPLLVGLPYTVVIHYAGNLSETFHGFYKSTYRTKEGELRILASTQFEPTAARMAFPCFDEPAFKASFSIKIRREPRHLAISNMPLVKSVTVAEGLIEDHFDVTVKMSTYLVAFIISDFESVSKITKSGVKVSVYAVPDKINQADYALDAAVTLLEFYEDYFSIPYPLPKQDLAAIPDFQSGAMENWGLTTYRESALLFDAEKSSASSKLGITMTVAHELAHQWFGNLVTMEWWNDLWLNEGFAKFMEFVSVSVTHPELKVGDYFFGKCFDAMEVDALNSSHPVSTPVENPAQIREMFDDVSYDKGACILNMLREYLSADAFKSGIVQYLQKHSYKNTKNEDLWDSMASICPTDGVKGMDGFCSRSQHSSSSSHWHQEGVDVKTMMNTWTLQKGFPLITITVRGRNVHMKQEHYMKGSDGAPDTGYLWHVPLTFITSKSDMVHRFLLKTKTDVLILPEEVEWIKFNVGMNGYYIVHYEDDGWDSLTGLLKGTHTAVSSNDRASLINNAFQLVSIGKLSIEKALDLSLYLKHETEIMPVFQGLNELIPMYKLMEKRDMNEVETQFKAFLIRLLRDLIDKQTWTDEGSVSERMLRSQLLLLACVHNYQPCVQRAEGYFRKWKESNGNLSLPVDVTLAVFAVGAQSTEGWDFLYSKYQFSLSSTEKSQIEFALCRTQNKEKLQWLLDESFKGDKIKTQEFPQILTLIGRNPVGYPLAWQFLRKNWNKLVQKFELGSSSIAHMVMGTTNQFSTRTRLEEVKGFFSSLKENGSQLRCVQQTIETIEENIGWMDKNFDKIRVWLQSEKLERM

SMILES	IC50
COc1ccc(C(=O)O)cc1S(=O)(=O)Nc1cc(C#N)ccc1-n1cccc1 [Example 121, 3-(N-(5-cyano-2-(pyrrol-1-yl)phenyl)sulfamoyl)-4-methoxybenzoic acid]	< 500 nM
CCc1ccc(C(=O)O)cc1S(=O)(=O)Nc1cc(C(F)(F)F)ccc1-c1cccn1C [Example 73, 4-ethyl-3-(N-(2-(1-methyl-pyrrol-2-yl)-5-(trifluoromethyl)phenyl)sulfamoyl)benzoic acid]	< 500 nM
COc1ccc(C(=O)O)cc1S(=O)(=O)Nc1cc(-c2nnn[nH]2)ccc1-c1ccccc1 [Example 63, 3-(N-(4-(tetrazol-5-yl)-[1,1′-biphenyl]-2-yl)sulfamoyl)-4-methoxybenzoic acid]	< 500 nM
CCc1ccc(C(=O)O)cc1S(=O)(=O)Nc1cc(C(F)(F)F)ccc1-c1ccc(Cl)s1 [Example 70, 3-(N-(2-(5-chlorothiophen-2-yl)-5-(trifluoromethyl)phenyl)sulfamoyl)-4-ethylbenzoic acid]	< 500 nM
COc1ccc(C(=O)O)cc1S(=O)(=O)Nc1cc(C(F)(F)F)ccc1-n1cccc1 [Example 35, 3-(N-(2-(pyrrol-1-yl)-5-(trifluoromethyl)phenyl)sulfamoyl)-4-methoxybenzoic acid]	< 500 nM
CCc1ccc(C(=O)O)cc1S(=O)(=O)Nc1cc(C(F)(F)F)ccc1-c1ccc[nH]1 [Example 69, 3-(N-(2-(pyrrol-2-yl)-5-(trifluoromethyl)phenyl)sulfamoyl)-4-ethylbenzoic acid]	< 500 nM
CCc1ccc(C(=O)O)cc1S(=O)(=O)Nc1cc(S(C)(=O)=O)ccc1-n1cccc1 [Example 108, 4-ethyl-3-(N-(5-(methylsulfonyl)-2-(pyrrol-1-yl)phenyl)sulfamoyl)benzoic acid]	< 500 nM
COc1ccc(C(=O)O)cc1S(=O)(=O)Nc1cc(C(F)(F)F)ccc1-c1cccnc1 [Example 2, 4-methoxy-3-(N-(2-(pyridin-3-yl)-5-(trifluoromethyl)phenyl)sulfamoyl)benzoic acid]	< 500 nM
COc1ccc(C(=O)O)cc1S(=O)(=O)Nc1cc(C#N)ccc1-c1ccccc1 [Example 60, 3-(N-(4-cyano-[1,1′-biphenyl]-2-yl)sulfamoyl)-4-methoxybenzoic acid]	< 500 nM
COc1ccc(C(=O)O)cc1S(=O)(=O)Nc1cc(-c2nnn[nH]2)ccc1-c1cccc(F)c1 [Example 64, 3-(N-(3′-fluoro-4-(tetrazol-5-yl)-[1,1′-biphenyl]-2-yl)sulfamoyl)-4-methoxybenzoic acid]	< 500 nM
CCc1ccc(C(=O)O)cc1S(=O)(=O)Nc1cc(C(F)(F)F)ccc1-c1ccccc1 [Example 19, 4-ethyl-3-(N-(4-(trifluoromethyl)-[1,1′-biphenyl]-2-yl)sulfamoyl) benzoic acid]	< 500 nM
COc1ccc(C(=O)O)cc1S(=O)(=O)Nc1cc(C(F)(F)F)ccc1-c1cccc(C)c1 [Example 6, 4-methoxy-3-(N-(3′-methyl-4-(trifluoromethyl)-[1,1′-biphenyl]-2-yl)sulfamoyl)benzoic acid]	< 500 nM
COc1ccc(C(=O)O)cc1S(=O)(=O)Nc1cc(S(C)(=O)=O)ccc1-c1ccc(C)s1 [Example 85, 4-methoxy-3-(N-(5-(methylsulfonyl)-2-(5-methylthiophen-2-yl)phenyl)sulfamoyl)benzoic acid]	< 500 nM
COc1ccc(-c2ccc(C(F)(F)F)cc2NS(=O)(=O)c2cc(C(=O)O)ccc2OC)cc1 [Example 48, 4-methoxy-3-(N-(4′-methoxy-4-(trifluoromethyl)-[1,1′-biphenyl]-2-yl)sulfamoyl)benzoic acid]	> 5000 nM
O=C(O)c1ccc(C2CC2)c(S(=O)(=O)Nc2cc(C(F)(F)F)ccc2-c2cccnc2)c1 [Example 98, 4-cyclopropyl-3-(N-(2-(pyridin-3-yl)-5-(trifluoromethyl)phenyl)sulfamoyl)benzoic acid]	< 500 nM
COc1ccc(C(=O)O)cc1S(=O)(=O)Nc1cc(-c2nnn[nH]2)ccc1-c1cccs1 [Example 65, 3-(N-(5-(tetrazol-5-yl)-2-(thiophen-2-yl)phenyl)sulfamoyl)-4-methoxybenzoic acid]	< 500 nM
O=C(O)c1ccc(C2CC2)c(S(=O)(=O)Nc2cc(C(F)(F)F)ccc2-c2ccc(F)s2)c1 [Example 122, 4-cyclopropyl-3-(N-(2-(5-fluorothiophen-2-yl)-5-(trifluoromethyl)phenyl)sulfamoyl)benzoic acid]	< 500 nM
CCc1ccc(C(=O)O)cc1S(=O)(=O)Nc1cc(C(F)(F)F)ccc1-c1ccc(C)s1 [Example 58, 4-ethyl-3-(N-(2-(5-methylthiophen-2-yl)-5-(trifluoromethyl)phenyl)sulfamoyl)benzoic acid]	< 500 nM

Other lines, results leading:

IC50	SMILES
< 500 nM	O=C(O)c1ccc(C2CC2)c(S(=O)(=O)Nc2cc(-c3ccns3)ccc2-c2ccc(Cl)s2)c1 [Example 141, 3-(N-(2-(5-chlorothiophen-2-yl)-5-(isothiazol-5-yl)phenyl)sulfamoyl)-4-cyclopropylbenzoic acid]
< 500 nM	Cn1nccc1-c1cc(NS(=O)(=O)c2cc(C(=O)O)ccc2C2CC2)c(-n2cccc2)cc1Cl [Example 200, 3-(N-(4-chloro-5-(1-methylpyrazol-5-yl)-2-(pyrrol-1-yl)phenyl)sulfamoyl)-4-cyclopropylbenzoic acid]
< 500 nM	N#Cc1cc(NS(=O)(=O)c2cc(C(=O)O)ccc2C2CC2)c(-c2nccs2)cc1Cl [Example 192, 3-(N-(4-chloro-5-cyano-2-(thiazol-2-yl)phenyl)sulfamoyl)-4-cyclopropylbenzoic acid]
< 500 nM	O=C(O)c1ccc(C2CC2)c(S(=O)(=O)Nc2cc(C(F)(F)F)ccc2-c2ccsn2)c1 [Example 151, 4-cyclopropyl-3-(N-(2-(isothiazol-3-yl)-5-(trifluoromethyl)phenyl)sulfamoyl)benzoic acid]
< 500 nM	N#Cc1ccc(-c2ncccc2F)c(NS(=O)(=O)c2cc(C(=O)O)ccc2C2CC2)c1 [Example 152, 3-(N-(5-cyano-2-(3-fluoropyridin-2-yl)phenyl)sulfamoyl)-4-cyclopropylbenzoic acid]
< 500 nM	O=C(O)c1ccc(C2CC2)c(S(=O)(=O)Nc2cc(C(F)(F)F)c(F)cc2-n2cccc2)c1 [Example 155, 4-cyclopropyl-3-(N-(4-fluoro-2-(pyrrol-1-yl)-5-(trifluoromethyl)phenyl)sulfamoyl)benzoic acid]
< 500 nM	N#Cc1cc(NS(=O)(=O)c2cc(C(=O)O)ccc2C2CC2)c(-n2cccc2)cc1F [Example 157, 3-(N-(5-cyano-4-fluoro-2-(pyrrol-1-yl)phenyl)sulfamoyl)-4-cyclopropylbenzoic acid]
< 500 nM	Cc1oncc1-c1cc(NS(=O)(=O)c2cc(C(=O)O)ccc2C2CC2)c(-c2ccccn2)cc1Cl [Example 193, 3-(N-(4-chloro-5-(5-methylisoxazol-4-yl)-2-(pyridin-2-yl)phenyl)sulfamoyl)-4-cyclopropylbenzoic acid]
< 500 nM	N#Cc1ccc(-c2ccsn2)c(NS(=O)(=O)c2cc(C(=O)O)ccc2C2CC2)c1 [Example 170, 3-(N-(5-cyano-2-(isothiazol-3-yl)phenyl)sulfamoyl)-4-cyclopropylbenzoic acid]
< 500 nM	N#Cc1cc(NS(=O)(=O)c2cc(C(=O)O)ccc2C2CC2)c(-c2nccs2)cc1F [Example 183, 3-(N-(5-cyano-4-fluoro-2-(thiazol-2-yl)phenyl)sulfamoyl)-4-cyclopropylbenzoic acid]
< 500 nM	Cc1oncc1-c1ccc(-n2cccc2)c(NS(=O)(=O)c2cc(C(=O)O)ccc2C2CC2)c1 [Example 194, 4-cyclopropyl-3-(N-(5-(5-methylisoxazol-4-yl)-2-(pyrrol-1-yl)phenyl)sulfamoyl)benzoic acid]
< 500 nM	Cc1cc(C#N)cc(NS(=O)(=O)c2cc(C(=O)O)ccc2C2CC2)c1-c1ccccn1 [Example 176, 3-(N-(5-cyano-3-methyl-2-(pyridin-2-yl)phenyl)sulfamoyl)-4-cyclopropylbenzoic acid]
< 500 nM	N#Cc1cc(NS(=O)(=O)c2cc(C(=O)O)ccc2C2CC2)c(-c2ccsn2)cc1F [Example 181, 3-(N-(5-cyano-4-fluoro-2-(isothiazol-3-yl)phenyl)sulfamoyl)-4-cyclopropylbenzoic acid]
< 500 nM	O=C(O)c1ccc(C2CC2)c(S(=O)(=O)Nc2cc(-c3ccns3)c(F)cc2-c2ccccn2)c1 [Example 184, 4-cyclopropyl-3-(N-(4-fluoro-5-(isothiazol-5-yl)-2-(pyridin-2-yl)phenyl)sulfamoyl)benzoic acid]
< 500 nM	Cn1nccc1-c1ccc(-n2cccc2)c(NS(=O)(=O)c2cc(C(=O)O)ccc2C2CC2)c1 [Example 197, 4-cyclopropyl-3-(N-(5-(1-methylpyrazol-5-yl)-2-(pyrrol-1-yl)phenyl)sulfamoyl)benzoic acid]
< 500 nM	O=C(O)c1ccc(C2CC2)c(S(=O)(=O)Nc2cc(-c3cn[nH]c3)ccc2-c2ccccn2)c1 [Example 145]
< 500 nM	CCc1ccc(C(=O)O)cc1S(=O)(=O)Nc1cc(C(F)(F)F)ccc1-c1nccs1 [Example 128, 4-ethyl-3-(N-(2-(thiazol-2-yl)-5-(trifluoromethyl)phenyl)sulfamoyl)benzoic acid]
< 500 nM	N#Cc1cc(NS(=O)(=O)c2cc(C(=O)O)ccc2C2CC2)c(-c2ncccn2)cc1F [Example 182, 3-(N-(5-cyano-4-fluoro-2-(pyrimidin-2-yl)phenyl)sulfamoyl)-4-cyclopropylbenzoic acid]
